Assay results from patent publication US20050234015A1, “Low molecular weight heparin salt with triethanolamine useful as therapeutic-antitrombotic agent of local delivery, procedures for preparing them, process for elimination of hygroscopicity of heparin salt, pharmaceutical compositions for local use in antithrombotic therapy and uses therein” (priority 2004, published 2005).
Read-outs that look alike come from different tables or passages of the source.

Experiments:
[1] = anticoagulant strength of injectable heparin according to European Pharmacopoeia 2002 (EP strength); type: biochemical
Experimental: (§1) 7) Analytical Techniques Used • The anticoagulant strength of injectable heparin was determined according to European Pharmacopoeia 2002 (EP strength) and to USP 26 (USP strength) • Anti Xa and anti ha strengths were determined according to the literature of low molecular weight heparins (European Pharmacopoeia 2002) • Distribution of molecular weights and mean ponderal molecular weight were determined according to the literature of low molecular weight heparins (European Pharmacopoeia 2002), therefore, in the run buffer, TEA is replaced by Na^+ and the data obtained then pertain to polysaccharide sodium salt and not to TEA salt. • Triethanolamine is dosed by potentiometric titration.

[2] = hygroscopicity of the lyophilized product (observation); type: physicochemical; details: lyophilized solid
Text: The salt obtained from the reaction of the triethanolamine (TEA) with the low molecular weight heparin (LMWH) is an amber colored substance, with a waxy appearance, extremely difficult to manipulate due to its high hygroscopicity. These characteristics of the LMWH-TEA salt make extremely difficult its precise dosage in the preparation of the pharmaceutical end products (creams, gels, ointments).

[3] = system: Xa; test: anti Xa strength, European Pharmacopoeia 2002 Low Molecular Mass Heparin; type: biochemical
Experimental: (§2) The anti Xa and anti IIa biological strengths were measured according to the European Pharmacopoeia EP2002; “Low Molecular Mass Heparin”, as well as the mean molecular weights (weighed average Mw) and the molecular weight distribution. Moreover, the standards and gages are those strictly cited in the mentioned literature. It is noted that in the run buffer for the chromatographic test by HPLC (Na2SO4, 0.2M pH 5.0) the TEA is replaced by N^a+ whereby the declared value is that of the sodium polysaccharide fraction and not the one of the LMWH-TEA salt.
as §1

[4] = system: experimental thrombosis in the tail of the test rat; test: κ-carrageenan rat tail thrombosis model, local cream treatment; type: in vivo, Wister rats (female); details: 1000 u antiXa/gram, compared with local heparin and LMWH sodium salt creams
Text: With such criteria, Wister rats (female) raised in the laboratory and sanitarily controlled were used as test mammal.
Particularly, the thrombosis model developed consists of generating an experimental thrombosis in the tail of the test rat by intravenous injection (right caudal vein) of a thrombogenic substance such as κ-carrageenan. Without treatment, the tail of the animal totally forms thrombus without remission over time and ends up with necrosis after 3-4 days.
Particularly, this test was carried out according to the general outlines in Beckmeier et al, Agents and Actions, 16, 446 (1985), as follows:
a. Animals: female rats of 200-300 grams weight.
b. Thrombosing Solution: κ carrageenan Type II solution (Sigma C 1263) 1 mg/ml in sterile physiologic solution. 1 ml /kg of animal (right caudal vein of the tail) is injected (0.25 ml).
c. Thrombus induction: a tourniquet is placed near the tail base (15 cm from the end thereof) which was previously shaved. After 1 minute a thrombosing solution is injected and the animal tail is immediately immersed for 30 seconds in ice water, water is removed, it is dried and the tourniquet is kept for an additional 30 seconds. Then, the animal is kept for 2 minutes in a chamber at 10° C.
d. […]

[5] = target: T1, IIa (Homo sapiens, UniProt P00734); test: anti IIa strength, European Pharmacopoeia 2002 Low Molecular Mass Heparin; type: biochemical
Experimental: as §2, §1

[6] = target: T1, IIa; details: LMWH sodium salt by radical fragmentation methods, European Pat. 268885, U.S. Pat. No. 4,977,250; cited from earlier work
[7] = system: Xa; details: LMWH sodium salt by radical fragmentation methods, European Pat. 268885, U.S. Pat. No. 4,977,250; cited from earlier work
[8] = Example 3 comparison: LMWH-TEA of Example 2 vs lyophilizate with mannitol (60:40)
[9] = theoretical calculation: 100 g LMWH-Na = 167 g LMWH-TEA

For heparin [Injectable Heparin], the “EP Strength” value ([1]; starting injectable heparin of Example 1) was 182 iu/mg and the “EP Strength” value ([1]; starting injectable heparin of Example 2) was 180 iu/mg.
For “low molecular weight heparin salt with triethanolamine [LMWH-TEA]”, the hygroscopicity [2] was “highly hygroscopic”, the “anti Xa Strength” value [3, 8] was 50 iu/mg and the “anti Xa Strength” value ([3]; product of Example 1 (HClO depolymerization, diafiltration with TEA)) was 51 iu/mg. The “anti Xa Strength” value ([3]; product of Example 2 (H2O2/FeSO4 depolymerization, ion exchange resin, TEA)) was 50 iu/mg, the “anti Xa, Experimental” value ([3]; summary of experimental data) was 50-51 iu/mg and the “anti Xa, Theoretical” value [3, 9] was 54 iu/mg. The “efficacy against thrombosis, in words” value [4] was “highly significant restitutive activity”, the “anti IIa Strength” value [5, 8] was 24 iu/mg and the “anti IIa Strength” value ([5]; product of Example 1) was 24 iu/mg. For the same substance, the “anti IIa Strength” value ([5]; product of Example 2) was 24 iu/mg, the “anti IIa, Experimental” value ([5]; summary of experimental data) was 24 iu/mg and the “anti IIa, Theoretical” value [5, 9] was 24 iu/mg.
For “low molecular weight heparin sodium salt [LMWH Na]”, the “anti IIa Strength” value [6] is given as roughly 40 iu/mg and the “anti Xa Strength” value [7] is given as roughly 90 iu/mg.
